From PMC6691761, “Potential multifunctional agents with anti-hepatoma and anti-inflammation properties by inhibiting NF-кB activation” (Journal of Enzyme Inhibition and Medicinal Chemistry, 2019)

Key:
Type in all cases: cell-based
[1] = tested on: human acute mononuclear granulocyte leukaemia (THP-1); test: Cytotoxicity, MTT assay, THP-1; conditions: for IC50: MTT, 24 h; for THP-1 SI (selectivity index): quotient of IC50 towards LO2 cells
Text: (§1) Compounds 83–102 were screened against human neoplastic cell lines, such as human breast cancer cells (MCF-7), human colon cancer cells (HCT116), human lung carcinoma cells (A549), human gastric adenocarcinoma cells (SGC7901), human liver hepatocellular carcinoma cell line (HepG2), human cervical carcinoma cells (HeLa), human acute mononuclear granulocyte leukaemia (THP-1), and human normal hepatic cell line (LO2) using modified MTT assay. All the cells were obtained from the American Type Culture Collection (ATCC, Manassas, VA). The cells were cultured in DMEM or 1640. Positive controls (Doxorubicin (DOX) and Curcumin) and BAPs were initially dissolved in dimethyl sulphoxide (DMSO). Experimental concentration of DMSO was always 0.1% (v/v). The concentrations of BAPs and positive controls were 50, 20, 10, 5, 2.5, 1, 0.5, 0.1, 0.05, and 0.01 μg/mL.
(§2) The cells (1 × 10^4 cells/well) were seeded in a 96-well plate and incubated for 24 h. Cells treated with serial concentrations of drugs were incubated for another 24 h. After the media removed, 20 μL of MTT (5 mg/mL) solution was added and incubated for 4 h at 37 °C. The MTT solution was removed and then 150 μL of DMSO was added. The optical density was measured with a multi-well plate reader (TECAN, Mӓnnedorf, Switzerland) at 570 nm. The results are expressed as a decrease in the cell viability (%) in comparison to untreated controls. The concentration of each compound was examined in triplicate, and the IC50 values are expressed in Table 1.

[2] = tested on: human breast cancer cells (MCF-7); test: Cytotoxicity, MTT assay, MCF-7; conditions: for IC50: MTT, 24 h; for MCF-7 SI (selectivity index): quotient of IC50 towards LO2 cells
Text: as §1, §2

[3] = tested on: human colon cancer cells (HCT116); test: Cytotoxicity, MTT assay, HCT116; conditions: for IC50: MTT, 24 h; for HCT116 SI (selectivity index): quotient of IC50 towards LO2 cells
Text: as §1, §2

[4] = tested on: human gastric adenocarcinoma cells (SGC7901); test: Cytotoxicity, MTT assay, SGC7901; conditions: for IC50: MTT, 24 h; for SGC7901 SI (selectivity index): quotient of IC50 towards LO2 cells
Text: as §1, §2

[5] = tested on: human normal hepatic cell line (LO2); test: Toxicity to normal cells, MTT assay, LO2; conditions: 24 h
Text: as §1, §2

[6] = tested on: human liver hepatocellular carcinoma cell line (HepG2); test: Cytotoxicity, MTT assay, HepG2; conditions: for IC50: MTT, 24 h; for HepG2 SI (selectivity index): quotient of IC50 towards LO2 cells
Text: as §1, §2

[7] = tested on: human cervical carcinoma cells (HeLa); test: Cytotoxicity, MTT assay, HeLa; conditions: for IC50: MTT, 24 h; for HeLa SI (selectivity index): quotient of IC50 towards LO2 cells
Text: as §1, §2

[8] = tested on: human lung carcinoma cells (A549); test: Cytotoxicity, MTT assay, A549; conditions: for IC50: MTT, 24 h; for A549 SI (selectivity index): quotient of IC50 towards LO2 cells
Text: as §1, §2

Row | Structure (SMILES) | IC50 [1] [µM] | THP-1 SI (selectivity index) [1] | IC50 [2] [µM] | MCF-7 SI (selectivity index) [2] | IC50 [3] [µM] | HCT116 SI (selectivity index) [3] | IC50 [4] [µM] | SGC7901 SI (selectivity index) [4] | IC50 [5] [µM] | IC50 [6] [µM] | HepG2 SI (selectivity index) [6] | IC50 [7] [µM] | HeLa SI (selectivity index) [7] | IC50 [8] [µM] | A549 SI (selectivity index) [8] | further results
1 | COc1ccc(C=Nc2cccc(C=C3CN(C)CC(=Cc4ccccc4F)C3=O)c2)c(O)c1 [Compound 101] | 3.5 ± 0.2 | 4.0 | 4.7 ± 0.2 | 3.0 | 4.9 ± 0.1 | 2.8 | 10.8 ± 0.1 | 1.3 | 13.9 ± 0.3 | 4.8 ± 0.1 | 2.9 | 8.9 ± 0.2 | 1.6 | 3.5 ± 0.2 | 4.0 | 
2 | COc1cc(/C=C2\CN(C)C/C(=C\c3ccc(F)cc3Br)C2=O)cc(OC)c1OC [Compound 88] | 7.6 ± 0.2 | 1.9 | 6.3 ± 0.4 | 2.3 | 6.5 ± 0.3 | 2.3 | 3.6 ± 0.1 | 4.1 | 14.8 ± 0.3 | 5.3 ± 0.2 | 2.8 | 5.3 ± 0.3 | 2.8 | 5.6 ± 0.3 | 2.6 | 
3 | COc1ccccc1/C=C1\CN(C)C/C(=C\c2cc(OC)c(OC)c(OC)c2)C1=O [Compound 89] | 7.9 ± 0.3 | 1.7 | 9.7 ± 0.4 | 1.4 | 5.6 ± 0.1 | 2.4 | 3.3 ± 0.3 | 4.1 | 13.6 ± 0.1 | 4.3 ± 0.1 | 3.2 | 5.3 ± 0.4 | 2.6 | 4.9 ± 0.1 | 2.8 | 
4 | CN1C/C(=C\c2cccc([N+](=O)[O-])c2)C(=O)/C(=C/c2ccccc2F)C1 [Compound 83, (3E,5E)-3–(2-fluorobenzylidene)-1-methyl-5–(3-nitrobenzylidene)piperidin-4-one] |  |  |  | 1.8 |  | 2.1 |  | 3.5 |  |  |  |  | 5.2 |  | 5.7 | IC50 ([1]; Homo sapiens, THP-1, 24 h): 1.3 ± 0.1 µM; IC50 ([2]; Homo sapiens, MCF7): 7.2 ± 0.3 µM; IC50 ([3]; Homo sapiens, HCT-116): 6.2 ± 0.6 µM; IC50 ([4]; Homo sapiens, SGC-7901): 3.7 ± 0.3 µM; IC50 ([5]; Homo sapiens): 13.1 ± 0.8 µM; IC50 ([6]; Homo sapiens, HepG2, 24 h): 1.2 ± 0.2 µM; IC50 ([7]; Homo sapiens, HeLa): 2.5 ± 0.3 µM; IC50 ([8]; Homo sapiens, A549, 24 h): 2.3 ± 0.2 µM
5 | COc1cc(Br)c(O)c(C=Nc2cccc(C=C3CN(C)CC(=Cc4ccccc4F)C3=O)c2)c1 [Compound 102] | 5 ± 0.2 | 3.0 | 15.5 ± 1.2 | 1.0 | 18.1 ± 1.9 | 0.8 | 7 ± 0.4 | 2.1 | 14.8 ± 0.1 | 5.9 ± 0.1 | 2.5 | 9.1 ± 0.2 | 1.6 | 13.4 ± 0.7 | 1.1 | 
6 | COc1ccc(/C=C2\CN(C)C/C(=C\c3cc(OC)c(OC)c(OC)c3)C2=O)cc1 [Compound 90] | 5 ± 0.3 | 3.3 | 15.5 ± 0.9 | 1.1 | 12.1 ± 0.4 | 1.4 | 7 ± 0.4 | 2.4 | 16.5 ± 0.1 | 8.2 ± 0.6 | 2.0 | 15.5 ± 0.2 | 1.1 | 5.8 ± 0.2 | 2.8 | 
7 | CN1C/C(=C\c2cccc([N+](=O)[O-])c2)C(=O)/C(=C/c2ccc(F)cc2F)C1 [Compound 84] | 11.8 ± 0.2 | 1.6 | 8.5 ± 0.2 | 2.3 | 9.5 ± 0.1 | 2.0 | 7.6 ± 0.8 | 2.5 | 19.3 ± 0.3 | 8.2 ± 0.3 | 2.4 | 10.2 ± 0.2 | 1.9 | 6.2 ± 0.3 | 3.1 | 
8 | CN1CC(=Cc2cccc(N=Cc3ccc(Cl)cc3)c2)C(=O)C(=Cc2ccccc2F)C1 [Compound 94] | 4 ± 0.1 | 4.5 | 6.5 ± 0.1 | 2.8 | 6.3 ± 0.1 | 2.9 | 6.4 ± 0.1 | 2.8 | 18 ± 0.3 | 4.8 ± 0.1 | 3.8 | 11.1 ± 0.3 | 1.6 | 5.9 ± 0.3 | 3.1 | 
9 | CN1CC(=Cc2cccc(N=Cc3ccc(O)cc3O)c2)C(=O)C(=Cc2ccccc2F)C1 [Compound 98] | 5.1 ± 0.2 | 3.5 | 10.3 ± 0.7 | 1.7 | 11.4 ± 0.7 | 1.5 | 10.9 ± 0.3 | 1.6 | 17.6 ± 0.2 | 7.5 ± 0.1 | 2.3 | 6.2 ± 0.1 | 2.8 | 3.2 ± 0.7 | 5.5 | 
10 | CN1CC(=Cc2cccc(N=Cc3ccc(Cl)c(Cl)c3)c2)C(=O)C(=Cc2ccccc2F)C1 [Compound 95] | 3.8 ± 0.1 | 2.9 | 5.4 ± 0.2 | 2.0 | 6.3 ± 0.2 | 1.7 | 3.3 ± 0.5 | 3.3 | 11 ± 0.4 | 2.5 ± 0.1 | 4.4 | 4.3 ± 0.1 | 2.6 | 3.1 ± 0.2 | 3.5 | 
11 | COc1ccc(/C=C2\CN(C)C/C(=C\c3ccc(Cl)c(Cl)c3)C2=O)cc1 [Compound 91] | 7.2 ± 0.2 | 2.0 | 12.5 ± 0.5 | 1.1 | 18.1 ± 0.2 | 0.8 | 6.4 ± 0.1 | 2.2 | 14.2 ± 0.3 | 4.5 ± 0.7 | 3.2 | 17 ± 1.3 | 0.8 | 9.2 ± 0.1 | 1.5 | 
12 | CN1C/C(=C\c2cccc([N+](=O)[O-])c2)C(=O)/C(=C/c2ccc(F)cc2Br)C1 [Compound 87] | 6.6 ± 0.1 | 2.1 | 11.6 ± 0.3 | 1.2 | 7.7 ± 0.4 | 1.8 | 4.7 ± 0.3 | 2.9 | 13.7 ± 0.5 | 5.4 ± 0.5 | 2.5 | 9.4 ± 0.5 | 1.5 | 4.3 ± 0.3 | 3.2 | 
13 | COc1cc(/C=C/C(=O)CC(=O)/C=C/c2ccc(O)c(OC)c2)ccc1O [Curcumin, reference compound] |  | 1.4 |  | 1.4 |  | 1.6 |  | 1.2 |  |  | 1.4 |  | 1.5 |  | 1.2 | IC50 ([1]; Homo sapiens, THP-1, 24 h): 20.8 ± 0.6 µM; IC50 ([2]; Homo sapiens, MCF7): 20.5 ± 0.2 µM; IC50 ([3]; Homo sapiens, HCT-116): 17.2 ± 0.3 µM; IC50 ([4]; Homo sapiens, SGC-7901): 22.8 ± 0.6 µM; IC50 ([5]; Homo sapiens): 28.3 ± 1.2 µM; IC50 ([6]; Homo sapiens, HepG2, 24 h): 20.7 ± 0.1 µM; IC50 ([7]; Homo sapiens, HeLa): 19.4 ± 0.6 µM; IC50 ([8]; Homo sapiens, A549, 24 h): 22.7 ± 1 µM
14 | CN1C/C(=C\c2cc(F)cc(F)c2)C(=O)/C(=C/c2cccc([N+](=O)[O-])c2)C1 [Compound 85] | 5.4 ± 0.3 | 3.8 | 18.5 ± 0.4 | 1.1 | 13.2 ± 0.5 | 1.5 | 24.5 ± 0.8 | 0.8 | 20.3 ± 0.1 | 14.3 ± 0.1 | 1.4 | 14.2 ± 0.6 | 1.4 | 9.7 ± 0.2 | 2.1 | 
